Measured values published in article PMC3139784 (Bioorganic & medicinal chemistry, 2011).

How the values were obtained:
[1] = system: U373MG cells expressing hiCE; assay: Growth inhibition assay with inhibitors and CPT-11; assay type: cell-based; conditions: U373MGhiCE cells
[2] = target: hAChE (Homo sapiens, UniProt P22303); assay: Inhibition of acetylcholinesterase; assay type: biochemical
[3] = target: hBChE (Homo sapiens, UniProt P06276); assay: Inhibition of butyrylcholinesterase; assay type: biochemical
[4] = system: mammalian CEs (hCE1, hiCE, rCE); assay: CE inhibition across mammalian CEs; assay type: biochemical; conditions: hCE1, hiCE or rCE, o-NPA substrate
[5] = Spontaneous hydrolysis in buffered aqueous solution; assay type: physicochemical; conditions: within 5 mins of addition to buffered aqueous (pH 7.4) solution
[6] = system: CE; assay: Ability of compounds to act as CE substrates; assay type: biochemical; conditions: 200 μM compound, 50 mM Hepes pH 7.4, data not shown

hBChE, sequence (P06276 29-602): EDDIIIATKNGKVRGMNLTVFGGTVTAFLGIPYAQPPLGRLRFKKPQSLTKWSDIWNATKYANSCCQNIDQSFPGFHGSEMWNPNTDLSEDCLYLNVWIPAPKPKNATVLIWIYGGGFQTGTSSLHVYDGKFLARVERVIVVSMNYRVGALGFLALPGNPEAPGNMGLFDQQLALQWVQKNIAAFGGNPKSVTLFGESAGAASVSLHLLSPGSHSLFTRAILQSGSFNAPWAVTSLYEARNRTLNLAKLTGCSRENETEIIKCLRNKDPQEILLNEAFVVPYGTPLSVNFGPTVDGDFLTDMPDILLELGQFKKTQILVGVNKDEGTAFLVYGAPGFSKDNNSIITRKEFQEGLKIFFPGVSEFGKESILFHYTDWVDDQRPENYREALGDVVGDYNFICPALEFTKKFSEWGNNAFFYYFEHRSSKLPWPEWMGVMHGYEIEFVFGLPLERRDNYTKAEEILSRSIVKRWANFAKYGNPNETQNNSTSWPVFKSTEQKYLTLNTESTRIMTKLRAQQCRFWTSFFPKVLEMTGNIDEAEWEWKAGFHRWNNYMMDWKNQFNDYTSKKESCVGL
hAChE, sequence (P22303 32-614): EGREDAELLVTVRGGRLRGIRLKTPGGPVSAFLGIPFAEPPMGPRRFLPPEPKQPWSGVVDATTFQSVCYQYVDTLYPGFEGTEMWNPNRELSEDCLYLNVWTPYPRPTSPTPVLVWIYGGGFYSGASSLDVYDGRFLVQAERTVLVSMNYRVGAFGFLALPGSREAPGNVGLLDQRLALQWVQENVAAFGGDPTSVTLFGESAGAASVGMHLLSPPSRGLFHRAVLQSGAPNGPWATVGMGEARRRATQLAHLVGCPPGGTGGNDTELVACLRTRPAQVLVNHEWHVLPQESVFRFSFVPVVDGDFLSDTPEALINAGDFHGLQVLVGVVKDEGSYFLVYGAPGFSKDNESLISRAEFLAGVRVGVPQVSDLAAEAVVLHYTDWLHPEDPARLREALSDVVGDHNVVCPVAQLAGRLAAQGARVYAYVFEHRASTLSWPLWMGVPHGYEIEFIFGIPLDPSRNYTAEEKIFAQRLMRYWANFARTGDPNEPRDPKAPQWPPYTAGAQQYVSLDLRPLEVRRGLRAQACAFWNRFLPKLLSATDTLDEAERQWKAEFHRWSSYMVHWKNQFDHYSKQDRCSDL

SMILES	CE inhibition (in words) [4]	Compound hydrolyzed spontaneously [5]	Hydrolysis on addition of CE (in words) [6]	also measured
O=C(C(=O)c1ccccc1)c1ccccc1 [Compound 1, Benzil, reference compound]				Reduction of toxicity of CPT-11 ([1]; versus CPT-11 alone): ~ 6 fold
O=C(Nc1ccccc1)C(=O)Nc1ccccc1 [Compound 2, Oxanilide]	not an inhibitor			Activity towards hAChE (in words) [2]: lacked activity; Activity towards hBChE (in words) [3]: lacked activity
O=C(Sc1ccccc1)C(=O)Sc1ccccc1 [Compound 3, S^1, S^2-Diphenyl ethane bis(thioate)]	ineffective at enzyme inhibition	greater than 40%	not enhanced	
O=C(Oc1ccccc1)C(=O)Oc1ccccc1 [Compound 4, Diphenyl ethanedioate]	ineffective at enzyme inhibition	greater than 40%	not enhanced	
CCCCCCC(=O)C(=O)CCCCCC [Compound 13, Tetradecane-7,8-dione]				Modulation of CPT-11 cytotoxicity (in words) ([1]; 10 μM inhibitor): ineffective
